Data as given in article PMC4132742, “Inhibition of RNA binding to hepatitis C virus RNA-dependent RNA polymerase: a new mechanism for antiviral intervention” (Nucleic Acids Research, 2014).

Target: HCV-NS5BΔ21 RdRp genotype 1b (strain J4) (Hepatitis C virus genotype 1b, UniProt O92972)
Assay: biochemical
Set-up: His6 (N); made in house; host or cells: Escherichia coli C41(DE3)
Details: 20 μM compound; for Slope of fluorescence increase: no treatment control slope 62.0
Protocol: The HCV RdRps (NS5B protein) from reference strains H77 (genotype 1a), J4 (genotype 1b) and JFH1 (genotype 2a), truncated of their 21 C-terminal amino acids to ensure solubility (NS5BΔ21) and carrying a hexahistidine tag (His6-Tag) at their N-terminus, were expressed in Escherichia coli C41(DE3) and purified as previously described ([20]). Briefly, cultures were grown at 37°C for ∼1 h and induced with 1 mM isopropyl β-D-thiogalactoside for 4 h at 37°C. […] After sonication, cell lysates were clarified by centrifugation, and chromatography was performed on a Ni-NTA column (Qiagen, Hilden, Germany). The bound protein was eluted in 1 ml fractions with a buffer containing 50 mM NaH2PO4 (pH 8.0), 500 mM NaCl and 250 mM imidazole. NS5BΔ21-enriched fractions were selected using a Bradford colorimetric assay, and HCV-NS5BΔ21 purity was determined by Coomassie-stained sodium dodecyl sulfate-polyacrylamide electrophoresis gel (SDS-PAGE) analysis. Purified NS5BΔ21 fractions were pooled and dialyzed against a buffer containing 5 mM Tris (pH 7.5), 0.2 M sodium acetate, 1 mM DTT, 1 mM ethylenediaminetetraacetic acid (EDTA) and 10% glycerol.
The cell-free HCV-NS5BΔ21 polymerase assay is based on the real-time measurement of the amount of double-stranded RNA synthesized in the presence of HCV-NS5BΔ21, a homopolymeric RNA template (poly U or poly C, GE Healthcare, Chalfont St. Giles, UK) and the corresponding nucleotide, by means of an intercalating agent (SYBR® Green, Applied Biosystems, Carlsbad, CA, USA), as previously described ([20]). For screening, HCV-NS5BΔ21 polymerase activity was quantified by the slope of fluorescence increase in the presence of 20 μM of the tested flavonoid compounds and compared with the control reaction containing no inhibitor. […] The reported values are the average of three independent measurements performed in duplicate. For kinetics analysis, initial reaction velocities were measured at different nucleotide (adenosine triphosphate (ATP) or GTP) and studied compound concentrations, without pre-incubation and in the presence of 50 μg/ml of the corresponding homopolymeric RNA template (Poly U and Poly C, respectively). The concentration of NS5BΔ21 (J4 strain, genotype 1b) in the reaction was 0.1 mg/ml. Kinetics data were graphically represented as double reciprocal plots. Data points were fitted by linear regression to identify the inhibition mode of the compound.

Row | SMILES | % HCV-NS5BΔ21 inhibition | Slope of fluorescence increase | inhibition at 20 µM | % HCV-NS5BΔ21 inhibition (20 µM)
1 | Oc1cc(O)c2c(c1)O[C@H](c1ccc(O)c(O)c1)[C@@H](O)C2 (racemic) [DL-Catechin] | 17.7% | 51.1 |  | 
2 | O=C1c2ccc(O)cc2OC(c2cc(O)c(O)c(O)c2)C1O (stereo in doubt) [Dihydrorobinetin] | 11.0% | 55.2 |  | 
3 | O=c1cc(-c2ccc(O)c(O)c2)oc2ccccc12 [3’.4’-Dihydroxyflavone] | 45.4% | 33.9 |  | 
4 | O=c1cc(-c2ccc(O)c(O)c2)oc2c(O)c(O)ccc12 [3’.4’.7.8-Tetrahydroxyflavone] | 30.9% | 42.9 |  | 
5 | O=C1CC(c2ccc(O)cc2)Oc2ccccc21 (stereo not shown) [4’-Hydroxyflavanone] |  | 56.3 | 9.3% | 
6 | O=c1c(O)c(-c2ccc(O)cc2)oc2cc(O)ccc12 [5-Deoxykampferol] |  | 22.4 |  | 63.9%
7 | O=c1cc(-c2ccccc2)oc2cccc(O)c12 [5-hydroxyflavone] |  | 53.0 | 14.5% | 
8 | O=c1cc(-c2ccccc2)oc2c(O)c(O)cc(O)c12 [5.7.8-Trihydroxyflavone] | 47.4% | 32.6 |  | 
9 | O=C1CC(c2ccccc2)Oc2ccc(O)cc21 (stereo not shown) [6-Hydroxyflavanone] |  | 59.5 | 4.1% | 
10 | O=c1cc(-c2ccccc2)oc2ccc(O)cc12 [6-Hydroxyflavone] |  | 50.6 | 18.5% | 
11 | O=c1cc(-c2ccccc2)oc2cc(O)c(O)cc12 [6.7 Dihydroxyflavone] | 37.4% | 38.8 |  | 
12 | O=c1c(O)c(-c2ccccc2)oc2cc(O)ccc12 [7-hydroxyflavonol] |  | 17.8 | 71.3% | 
13 | O=c1cc(-c2ccc(O)cc2)oc2cc(O)ccc12 [7.4’-Dihydroxyflavone] | 25.7% | 46.1 |  | 
14 | O=c1cc(-c2ccccc2)oc2c(O)c(O)ccc12 [7.8 Dihydroxyflavone] | 30.8% | 42.9 |  | 
15 | O=c1cc(-c2ccc(O)cc2)oc2cc(O)cc(O)c12 [Apigenin] |  | 23.3 | 62.5% | 
16 | O=c1cc(-c2ccccc2)oc2cc(O)c(O)c(O)c12 [Baicalein] |  | 23.7 | 61.8% | 
17 | O=c1c(O)c(-c2ccccc2O)oc2cc(O)cc(O)c12 [Datiscetin] |  | 18.3 | 70.5% | 
18 | O=c1c(O)c(-c2ccc(O)c(O)c2)oc2cc(O)ccc12 [Fisetin] |  | 21.2 | 65.8% | 
19 | O=C1CC(c2ccccc2)Oc2ccccc21 (stereo not shown) [Flavanone] |  | 57.4 | 7.5% | 
20 | O=c1cc(-c2ccccc2)oc2ccccc12 [Flavone] |  | 53.9 | 13.1% | 
21 | O=C1c2ccc(O)cc2O[C@H](c2ccc(O)c(O)c2)[C@H]1O [Fustin] |  | 53.0 | 14.5% | 

Row | SMILES | % HCV-NS5BΔ21 inhibition | Slope of fluorescence increase | inhibition at 20 µM | % HCV-NS5BΔ21 inhibition (20 µM)
22 | O=c1c(O)c(-c2ccccc2)oc2cc(O)cc(O)c12 [Galangin] |  | 11.9 | 80.8% | 
23 | O=c1c(-c2ccc(O)cc2)coc2cc(O)cc(O)c12 [Genistein] |  | 53.9 | 13.1% | 
24 | O=c1c(O)c(-c2ccc(O)c(O)c2)oc2c(O)c(O)cc(O)c12 [Gossypetin] |  | 15.8 | 74.6% | 
25 | O=c1c(O[C@@H]2O[C@H](CO)[C@H](O)[C@H](O)[C@H]2O)c(-c2ccc(O)c(O)c2)oc2cc(O)cc(O)c12 [Hyperoside] |  | 44.6 | 28.1% | 
26 | COc1cc(-c2oc3cc(O)cc(O)c3c(=O)c2O)ccc1O [Isorhamnetin] |  | 13.9 | 77.6% | 
27 | O=c1c(O)c(-c2ccc(O)cc2)oc2cc(O)cc(O)c12 [Kaempferol] |  | 15.7 | 74.7% | 
28 | O=C1C[C@@H](c2ccc(O)cc2)Oc2cc(O)ccc21 [Liquiritigenin] | 6.1% | 58.3 |  | 
29 | O=c1cc(-c2ccc(O)c(O)c2)oc2cc(O)cc(O)c12 [Luteolin] |  | 11.4 | 81.7% | 
30 | O=c1c(O)c(-c2ccc(O)cc2O)oc2cc(O)cc(O)c12 [Morin] |  | 19.0 | 69.3% | 
31 | O=c1c(O)c(-c2cc(O)c(O)c(O)c2)oc2cc(O)cc(O)c12 [Myricetin] |  | 12.9 | 79.2% | 
32 | O=C1C[C@@H](c2ccc(O)cc2)Oc2cc(O)cc(O)c21 [Naringenin] |  | 58.3 | 6% | 
33 | O=c1c(O)c(-c2ccc(O)c(O)c2)oc2cc(O[C@@H]3O[C@H](CO)[C@@H](O)[C@H](O)[C@H]3O)c(O)c(O)c12 [Quercetagetin-7-O glucoside] | 42.5% | 35.7 |  | 
34 | COc1cc(OC)c2c(=O)c(OC)c(-c3ccc(OC)c(OC)c3)oc2c1 [Quercetin 3.5.7.3’.4’ pentamethylether] | 4.0% | 59.6 |  | 
35 | COc1cc(O)c2c(=O)c(OC)c(-c3ccc(OC)c(OC)c3)oc2c1 [Quercetin 3.7.3’.4’ tétramethylether] | 14.5% | 53.0 |  | 
36 | O=c1c(O[C@@H]2O[C@H](CO)[C@@H](O)[C@H](O)[C@H]2O)c(-c2ccc(O)c(O)c2)oc2cc(O)cc(O)c12 [Quercetin-3-O glucopyranoside] | 25.9% | 46.0 |  | 
37 | O=c1c(O)c(-c2ccc(O)c(O)c2)oc2cc(O)cc(O)c12 [Quercetin] |  | 10.1 | 83.7% | 
38 | O=c1c(O)c(-c2cc(O)c(O)c(O)c2)oc2cc(O)ccc12 [Robinetin] |  | 27.4 | 55.9% | 
39 | C[C@@H]1O[C@@H](OC[C@H]2O[C@@H](Oc3c(-c4ccc(O)c(O)c4)oc4cc(O)cc(O)c4c3=O)[C@H](O)[C@@H](O)[C@@H]2O)[C@H](O)[C@H](O)[C@H]1O [Rutin] |  | 43.2 | 30.3% | 
40 | O=c1cc(-c2ccc(O)cc2)oc2cc(O)c(O)c(O)c12 [Scutellarein] |  | 20.2 | 67.4% | 
41 | O=c1cc(-c2cc(O)c(O)c(O)c2)oc2cc(O)cc(O)c12 [Tricetin] |  | 18.9 | 69.5% | 
